In ChEMBL document CHEMBL5614367, “Hydroxamic acid hybrids: Histone deacetylase inhibitors with anticancer therapeutic potency” (Eur J Med Chem, 2023):

Assays:
U-266 = assay: cells; type: functional, cell-based; conditions: Homo sapiens, U-266, 48 h
[1] = Cytotoxicity against human L02 cells assessed as inhibition of cell growth incubated for 48 hrs by MTT assay; type: toxicity, cell-based
[2] = Cytotoxicity against HEK293 cells assessed as inhibition of cell growth incubated for 48 hrs by MTT assay; type: toxicity, cell-based; conditions: human
RPMI-8226 [3] = assay: Antiproliferative activity against human RPMI-8226 cells assessed as inhibition of cell growth incubated for 48 hrs by MTT assay; type: functional, cell-based; conditions: RPMI-8226, 48 h
[4] = Metabolic stability in mouse liver microsomes assessed as half life at 1 uM incubated in presence of NADPH by LC-MS/MS analysis; type: ADME, Microsome
RPMI-8226 [5] = assay: Antitumor activity against human RPMI-8226 cells xenografted in BALB/c-nu mouse assessed as reduction in tumor growth by measuring relative increment ratio T/C at 50 mg/kg/day, ip administered for 19 days and measured every 3 days by vernier caliper relative to control; type: functional; conditions: time 19 day
MM1.S = assay: Antiproliferative activity against human MM1.S cells assessed as inhibition of cell growth incubated for 48 hrs by MTT assay; type: functional, cell-based
[6] = biological target: T1, Protein deacetylase HDAC6 (Homo sapiens, UniProt Q9UBN7); assay: Inhibition of HDAC6 (unknown origin) using Boc-Lys(acetyl)-AMC as substrate preincubated for 5 mins followed by substrate addition and measured after 30 mins by fluorescence based assay
T1 sequence (Q9UBN7 whole entry): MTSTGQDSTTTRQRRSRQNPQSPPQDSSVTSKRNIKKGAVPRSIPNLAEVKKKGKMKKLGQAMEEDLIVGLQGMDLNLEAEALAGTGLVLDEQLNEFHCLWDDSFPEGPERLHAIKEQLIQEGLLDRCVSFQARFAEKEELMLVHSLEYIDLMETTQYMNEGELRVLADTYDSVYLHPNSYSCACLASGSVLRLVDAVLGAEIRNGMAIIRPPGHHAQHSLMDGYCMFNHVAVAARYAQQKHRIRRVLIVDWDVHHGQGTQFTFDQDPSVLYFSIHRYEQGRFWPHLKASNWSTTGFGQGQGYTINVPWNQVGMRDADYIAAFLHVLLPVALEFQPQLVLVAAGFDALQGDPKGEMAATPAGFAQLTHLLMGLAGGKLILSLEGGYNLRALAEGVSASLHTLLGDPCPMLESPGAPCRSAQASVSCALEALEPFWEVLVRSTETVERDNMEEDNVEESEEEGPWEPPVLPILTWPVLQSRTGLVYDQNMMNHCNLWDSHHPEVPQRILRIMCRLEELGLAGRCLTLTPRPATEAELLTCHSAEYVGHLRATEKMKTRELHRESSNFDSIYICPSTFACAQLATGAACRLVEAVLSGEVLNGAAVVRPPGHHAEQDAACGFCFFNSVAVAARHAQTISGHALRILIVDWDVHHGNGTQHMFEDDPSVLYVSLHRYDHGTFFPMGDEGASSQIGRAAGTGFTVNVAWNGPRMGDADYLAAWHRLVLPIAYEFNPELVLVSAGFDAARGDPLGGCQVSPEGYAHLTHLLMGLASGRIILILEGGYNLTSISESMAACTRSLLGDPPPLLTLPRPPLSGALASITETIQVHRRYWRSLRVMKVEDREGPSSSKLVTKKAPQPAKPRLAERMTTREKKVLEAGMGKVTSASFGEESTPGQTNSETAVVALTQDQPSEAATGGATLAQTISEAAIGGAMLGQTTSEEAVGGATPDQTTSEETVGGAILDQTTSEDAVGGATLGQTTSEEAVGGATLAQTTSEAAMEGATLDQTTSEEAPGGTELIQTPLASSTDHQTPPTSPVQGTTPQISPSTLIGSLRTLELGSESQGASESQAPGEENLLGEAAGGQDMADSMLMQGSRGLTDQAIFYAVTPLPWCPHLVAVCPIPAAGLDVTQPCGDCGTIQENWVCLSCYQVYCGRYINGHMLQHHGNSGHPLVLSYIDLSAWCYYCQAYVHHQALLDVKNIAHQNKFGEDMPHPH

[7] = Metabolic stability in liver microsomes (unknown origin) assessed as clearance; type: ADME, Microsome; conditions: read-out: CLH
Histone deacetylase 8 = biological target: T2, Histone deacetylase 8 (Homo sapiens, UniProt Q9BY41); assay: Inhibition of HDAC8 (unknown origin)
T2 sequence (Q9BY41 whole entry): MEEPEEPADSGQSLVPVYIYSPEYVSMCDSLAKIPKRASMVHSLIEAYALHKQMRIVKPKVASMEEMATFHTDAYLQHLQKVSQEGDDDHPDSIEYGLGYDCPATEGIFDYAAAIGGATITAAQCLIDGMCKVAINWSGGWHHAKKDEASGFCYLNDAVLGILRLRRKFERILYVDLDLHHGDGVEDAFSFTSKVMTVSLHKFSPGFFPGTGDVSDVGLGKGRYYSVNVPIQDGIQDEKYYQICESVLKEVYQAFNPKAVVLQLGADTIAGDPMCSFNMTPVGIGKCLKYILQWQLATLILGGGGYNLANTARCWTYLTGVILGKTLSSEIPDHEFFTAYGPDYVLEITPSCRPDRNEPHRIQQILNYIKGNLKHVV

BE(2)-C = assay: Antitumor activity against human BE2C cells xenografted in mouse assessed as tumor growth inhibition at 50 mg/kg, ip relative to control; type: functional; conditions: read-out: TGI
[8] = Metabolic stability in liver microsomes (unknown origin) assessed as half life; type: ADME, Microsome
[9] = Half life in BALB/c mouse at 50 mg/kg, po; type: ADME, organism-based; conditions: in vivo
[10] = Metabolic stability in rat liver microsomes assessed as half life; type: ADME, Microsome
[11] = Toxicity in female BALB/c mouse assessed as maximum tolerable dose; conditions: in vivo
Histone deacetylase = assay: Inhibition of HDAC in human HeLa cell nuclear extract using Boc-Lys(Ac)-AMC as substrate; type: subcellular, Nucleus
[12] = Cmax in BALB/c mouse at 50 mg/kg, po; type: ADME, organism-based; conditions: in vivo
[13] = Metabolic stability in human liver microsomes assessed as half life; type: ADME, Microsome
[14] = Tmax in BALB/c mouse at 50 mg/kg, po; type: ADME, organism-based; conditions: in vivo
[15] = Oral bioavailability in BALB/c mouse at 50 mg/kg; type: ADME, organism-based; conditions: in vivo
HepG2 [16] = assay: Antiproliferative activity against human HepG2 cells; type: functional, cell-based
[17] = Cytotoxicity against human NCM460 cells; type: toxicity, cell-based
[18] = Cytotoxicity against human L02 cells; type: toxicity, cell-based
HT-29 = assay: Antiproliferative activity against human HT-29 cells; type: functional, cell-based
[19] = biological target: T1, Protein deacetylase HDAC6; assay: Inhibition of HDAC6 (unknown origin)
Histone deacetylase 1 = Histone deacetylase 1 (Homo sapiens, UniProt Q13547); assay: Inhibition of HDAC1 (unknown origin)
HCT-116 = assay: cells; conditions: Homo sapiens
Description: Antiproliferative activity against human HCT-116 cells

A549 = assay: Antiproliferative activity against human A549 cells
HepG2 [20] = assay: animal or person; type: functional, Homo sapiens; conditions: Mus musculus, HepG2, po, 384 h, route ig, time 16 day
HepG2 [21] = assay: cells; type: functional, cell-based; conditions: Homo sapiens, HepG2, 48 h
cells = type: functional, cell-based; conditions: Homo sapiens, SPCA1, 48 h
U-937 = assay: cells; type: functional, cell-based; conditions: Homo sapiens, U-937, 48 h
MDA-MB-231 = assay: cells; type: functional, cell-based; conditions: Homo sapiens, MDA-MB-231, 48 h
PANC-1 = assay: cells; type: functional, cell-based; conditions: Homo sapiens, PANC-1, 48 h
Histone deacetylase 3 = Histone deacetylase 3 (Homo sapiens, UniProt O15379); assay: Inhibition of recombinant HDAC3 (unknown origin) using Boc-Lys (acetyl)-AMC as substrate preincubated for 1 hr followed by substrate addition and measured after 2 hrs by fluorescence based analysis
SK-OV-3 = assay: cells; type: functional, cell-based; conditions: Homo sapiens, SK-OV-3, 48 h
MDA-MB-468 = assay: cells; type: functional, cell-based; conditions: Homo sapiens, MDA-MB-468, 48 h
K562 = assay: cells; type: functional, cell-based; conditions: Homo sapiens, K562, 48 h
Calu-3 = assay: cells; type: functional, cell-based; conditions: Homo sapiens, Calu-3, 48 h
C6 = assay: Antitumor activity against rat C6 cells allografted in Sprague-Dawley rat assessed as survival time at 150 mg/kg, po measured for 20 days; type: functional; conditions: time 20 day
U-87 MG = assay: Antitumor activity against luciferase-transferred human U-87 MG cells xenografted in athymic nude mouse assessed as survival time at 150 mg/kg, po measured for 20 days; type: functional, U-87MG ATCC; conditions: time 20 day

Sequence of Histone deacetylase 1 (Q13547 whole entry): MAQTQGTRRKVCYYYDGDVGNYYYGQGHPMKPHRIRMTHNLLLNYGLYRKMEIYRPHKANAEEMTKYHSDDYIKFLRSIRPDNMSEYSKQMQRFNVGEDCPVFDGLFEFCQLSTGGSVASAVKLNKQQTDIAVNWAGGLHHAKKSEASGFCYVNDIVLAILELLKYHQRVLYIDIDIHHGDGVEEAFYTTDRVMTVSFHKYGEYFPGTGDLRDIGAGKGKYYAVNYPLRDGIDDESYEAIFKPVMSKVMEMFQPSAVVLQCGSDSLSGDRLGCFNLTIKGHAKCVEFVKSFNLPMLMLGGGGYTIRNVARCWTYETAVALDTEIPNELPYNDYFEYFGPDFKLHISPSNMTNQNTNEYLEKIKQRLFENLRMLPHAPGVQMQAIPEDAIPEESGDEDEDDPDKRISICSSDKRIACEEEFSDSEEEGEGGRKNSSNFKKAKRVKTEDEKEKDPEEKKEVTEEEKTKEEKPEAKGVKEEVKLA
Sequence of Histone deacetylase 3 (O15379 whole entry): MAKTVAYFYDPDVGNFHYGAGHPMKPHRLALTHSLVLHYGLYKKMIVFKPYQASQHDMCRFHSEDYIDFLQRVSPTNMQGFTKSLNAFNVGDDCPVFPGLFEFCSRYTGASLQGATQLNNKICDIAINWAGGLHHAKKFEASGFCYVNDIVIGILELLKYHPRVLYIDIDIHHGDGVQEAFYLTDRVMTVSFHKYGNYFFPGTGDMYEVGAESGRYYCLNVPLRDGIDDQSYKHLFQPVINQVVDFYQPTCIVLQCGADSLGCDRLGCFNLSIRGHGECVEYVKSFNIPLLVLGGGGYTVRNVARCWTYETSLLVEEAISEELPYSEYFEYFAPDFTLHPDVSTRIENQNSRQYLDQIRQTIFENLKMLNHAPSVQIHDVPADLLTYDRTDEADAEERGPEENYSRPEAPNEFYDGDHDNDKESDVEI

Q: Which IC50 (U-266) does the source give for O=C(NO)c1ccc(CNc2ncnc3[nH]ccc23)cc1 here?
A: 620 nM

Q: What about the IC50 at 48 h [1] of the same molecule?
A: > 50000 nM

Q: What about the IC50 at 48 h [2] of the same molecule?
A: > 50000 nM

Q: What about the IC50 (RPMI-8226 [3]) of the same molecule?
A: 620 nM

Q: And the half-life at 1 µM [4]?
A: > 60 min

Q: What about the T/C (RPMI-8226 [5]) of the same molecule?
A: 70%

Q: What about the IC50 (MM1.S) of the same molecule?
A: 620 nM

Q: What about the IC50 [6] of the same molecule?
A: 10 nM

Q: With COc1cc(-c2cccc(-c3ccc(/C=C/C(=O)NO)cc3)n2)cc(OC)c1OC as the molecule, how does the CLint scaled [7] read?
A: 22.8 mL/min/kg

Q: And the IC50 (Histone deacetylase 8)?
A: 117 nM

Q: And the inhibition in vivo at 50 mg/kg (BE(2)-C)?
A: 61%

Q: And the half-life [8]?
A: 54.8 min

Q: What does the source list for CC(C)n1cnc2c(-c3cccc(OCCCC(=O)NO)c3)nc(N3CCOCC3)nc21?
A: half-life [9]: 113 min; half-life [10]: > 45 min; MTD [11]: 200 mg/kg; IC50 (Histone deacetylase): 35 nM; Cmax [12]: 1620 ng/mL; half-life [13]: > 45 min; Tmax [14]: 9 min; bioavailability [15]: 21%

Q: Which IC50 (HepG2 [16]) does the source give for COc1ccc2c3ccnc(C)c3n(CC3CCN(c4ncc(C(=O)NO)cn4)CC3)c2c1 here?
A: 1410 nM

Q: And the IC50 [17]?
A: 18500 nM

Q: What about the IC50 [18] of the same molecule?
A: 11300 nM

Q: And the IC50 (HT-29)?
A: 1410 nM

Q: What about the IC50 [19] of the same molecule?
A: 450 nM

Q: And the IC50 (Histone deacetylase 1)?
A: 22 nM

Q: And the IC50 (HCT-116)?
A: 1410 nM

Q: And the IC50 (A549)?
A: 1410 nM

Q: Which results are given for Cn1cc(CCCC(=O)Nc2ccc(C(=O)NO)cc2)c2ccccc21?
A: inhibition in vivo at 50 mg/kg (HepG2 [20]): 33.1%; IC50 (U-266): 160 nM; IC50 (HepG2 [21]): 160 nM; IC50 (cells): 160 nM; IC50 (U-937): 160 nM; IC50 (MDA-MB-231): 160 nM; IC50 (PANC-1): 160 nM; IC50 (Histone deacetylase 3): 13.9 nM; IC50 (SK-OV-3): 160 nM; IC50 (MDA-MB-468): 160 nM; IC50 (K562): 160 nM; IC50 (Calu-3): 160 nM

Q: With O=C(CCCCCCC(=O)Nc1ccccc1)NO [VORINOSTAT] as the molecule, how does the Survival (C6) read?
A: 13 days

Q: What about the Survival (U-87 MG) of the same molecule?
A: 13 days
